Where “and” joins values, the source holds several entries; their conditions need not be identical. Equal entries are not always repeated. Records with an inconclusive call do not appear.
Tested on: Lewis lung carcinoma i.m., BDF1 mice, T/C %
Assay: NCI In Vivo Anticancer Drug Screen. Data for tumor model Lewis Lung Carcinoma (intramuscular) in B6D2F1 (BDF1) mice
Method in brief: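 Compound given to mice with transplantable tumours; survival or tumour size compared against the vehicle control group, reported as T divided by C.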

For O=c1[nH]c(=O)n(C2CC(O)C(CO)O2)cc1F (configuration not stated), the T/C (endpoint: mean tumor weight, dose: 10.0 mg/kg/injection, schedule: Q01DX009 (ip), vehicle: saline, higher = larger tumour) was 59 % of control, the T/C (endpoint: mean tumor weight, dose: 10.0 mg/kg/injection, schedule: Q01DX011 (ip), vehicle: other, higher = larger tumour) was 83 % of control and the T/C (endpoint: mean tumor weight, dose: 20.0 mg/kg/injection, schedule: Q01DX009 (ip), vehicle: saline, higher = larger tumour) was 72 % of control. The T/C (endpoint: mean tumor weight, dose: 20.0 mg/kg/injection, schedule: Q01DX011 (ip), vehicle: other, higher = larger tumour) was 29 % of control, the T/C (endpoint: mean tumor weight, dose: 20.0 mg/kg/injection, schedule: Q01DX011 (ip), vehicle: saline, higher = larger tumour) was 31 % of control and 42 % of control and the T/C (endpoint: mean tumor weight, dose: 25.0 mg/kg/injection, schedule: Q01DX011 (ip), vehicle: saline, higher = larger tumour) was 58 % of control. For the same compound, the T/C (endpoint: mean tumor weight, dose: 40.0 mg/kg/injection, schedule: Q01DX009 (ip), vehicle: saline, higher = larger tumour) was 65 % of control, the T/C (endpoint: mean tumor weight, dose: 40.0 mg/kg/injection, schedule: Q01DX011 (ip), vehicle: saline, higher = larger tumour) was 10 % of control and 17 % of control and the T/C (endpoint: mean tumor weight, dose: 50.0 mg/kg/injection, schedule: Q01DX011 (ip), vehicle: saline, higher = larger tumour) was 18 % of control. The T/C (endpoint: mean tumor weight, dose: 80.0 mg/kg/injection, schedule: Q01DX009 (ip), vehicle: saline, higher = larger tumour) was 16 % of control, the T/C (endpoint: mean tumor weight, dose: 80.0 mg/kg/injection, schedule: Q01DX011 (ip), vehicle: other, higher = larger tumour) was 4 % of control and the T/C (endpoint: mean tumor weight, dose: 80.0 mg/kg/injection, schedule: Q01DX011 (ip), vehicle: saline, higher = larger tumour) was 7 % of control. The T/C (endpoint: mean tumor weight, dose: 100.0 mg/kg/injection, schedule: Q01DX011 (ip), vehicle: saline, higher = larger tumour) was 3 % of control, the T/C (endpoint: median survival time, dose: 10.0 mg/kg/injection, schedule: Q01DX011 (ip), vehicle: other, higher = longer survival) was 98 % of control and the T/C (endpoint: median survival time, dose: 10.0 mg/kg/injection, schedule: Q01DX011 (ip), vehicle: saline, higher = longer survival) was 107 % of control and 120 % of control. For the same compound, the T/C (endpoint: median survival time, dose: 19.0 mg/kg/injection, schedule: Q01DX007 (sc), vehicle: saline, higher = longer survival) was 100 % of control, the T/C (endpoint: median survival time, dose: 20.0 mg/kg/injection, schedule: Q01DX011 (ip), vehicle: other, higher = longer survival) was 108 % of control and the T/C (endpoint: median survival time, dose: 20.0 mg/kg/injection, schedule: Q01DX011 (ip), vehicle: saline, higher = longer survival) was 91 % of control and 112 % of control and 123 % of control. The T/C (endpoint: median survival time, dose: 20.0 mg/kg/injection, schedule: Q01DX011 (ip), vehicle: water, higher = longer survival) was 105 % of control, the T/C (endpoint: median survival time, dose: 25.0 mg/kg/injection, schedule: Q01DX011 (ip), vehicle: saline, higher = longer survival) was 108 % of control and the T/C (endpoint: median survival time, dose: 31.0 mg/kg/injection, schedule: Q01DX007 (sc), vehicle: saline, higher = longer survival) was 121 % of control. The T/C (endpoint: median survival time, dose: 40.0 mg/kg/injection, schedule: Q01DX009 (ip), vehicle: saline, higher = longer survival) was 114 % of control and 115 % of control, the T/C (endpoint: median survival time, dose: 40.0 mg/kg/injection, schedule: Q01DX011 (ip), vehicle: saline, higher = longer survival) was 97 % of control and 100 % of control and the T/C (endpoint: median survival time, dose: 40.0 mg/kg/injection, schedule: Q01DX011 (ip), vehicle: water, higher = longer survival) was 113 % of control. The T/C (endpoint: median survival time, dose: 50.0 mg/kg/injection, schedule: Q01DX009 (ip), vehicle: saline, higher = longer survival) was 101 % of control, the T/C (endpoint: median survival time, dose: 80.0 mg/kg/injection, schedule: Q01DX009 (ip), vehicle: saline, higher = longer survival) was 124 % of control and the T/C (endpoint: median survival time, dose: 80.0 mg/kg/injection, schedule: Q01DX011 (ip), vehicle: saline, higher = longer survival) was 153 % of control. For the same compound, the T/C (endpoint: median survival time, dose: 80.0 mg/kg/injection, schedule: Q01DX011 (ip), vehicle: water, higher = longer survival) was 121 % of control and the T/C (endpoint: median survival time, dose: 86.0 mg/kg/injection, schedule: Q01DX007 (sc), vehicle: saline, higher = longer survival) was 121 % of control.
With COC(=O)C1Cc2cncn2C(=O)N1 (configuration not stated) the T/C (endpoint: median survival time, dose: 4.0 mg/kg/injection, schedule: Q01DX009 (ip), vehicle: water, higher = longer survival) was 113 % of control, the T/C (endpoint: median survival time, dose: 8.0 mg/kg/injection, schedule: Q01DX009 (ip), vehicle: water, higher = longer survival) was 108 % of control and the T/C (endpoint: median survival time, dose: 16.0 mg/kg/injection, schedule: Q01DX009 (ip), vehicle: water, higher = longer survival) was 104 % of control. For the same compound, the T/C (endpoint: median survival time, dose: 32.0 mg/kg/injection, schedule: Q01DX009 (ip), vehicle: water, higher = longer survival) was 103 % of control and the T/C (endpoint: median survival time, dose: 64.0 mg/kg/injection, schedule: Q01DX009 (ip), vehicle: water, higher = longer survival) was 98 % of control.
For CC(=O)n1cc(F)c(=O)[nH]c1=O, the T/C (endpoint: median survival time, dose: 6.0 mg/kg/injection, schedule: Q01DX011 (ip), vehicle: saline, higher = longer survival) was 98 % of control, the T/C (endpoint: median survival time, dose: 12.0 mg/kg/injection, schedule: Q01DX011 (ip), vehicle: saline, higher = longer survival) was 111 % of control and the T/C (endpoint: median survival time, dose: 24.0 mg/kg/injection, schedule: Q01DX011 (ip), vehicle: saline, higher = longer survival) was 109 % of control.
For O=S(=O)(O)C(Nc1ccccc1)c1ccccc1 (configuration not stated), the T/C (endpoint: mean tumor weight, dose: 200.0 mg/kg/injection, schedule: Q01DX011 (ip), vehicle: water, higher = larger tumour) was 79 % of control and the T/C (endpoint: mean tumor weight, dose: 400.0 mg/kg/injection, schedule: Q01DX011 (ip), vehicle: water, higher = larger tumour) was 58 % of control.
In the case of Clc1nc2ccccc2nc1CI, the T/C (endpoint: mean tumor weight (est.), dose: 5.0 mg/kg/injection, schedule: Q01DX011 (ip), vehicle: saline, higher = larger tumour) was 70 % of control and the T/C (endpoint: median survival time, dose: 5.0 mg/kg/injection, schedule: Q01DX011 (ip), vehicle: saline, higher = longer survival) was 100 % of control.
In the case of Cc1c(N)nc(C(CC(N)=O)NCC(N)C(N)=O)nc1C(=O)NC(C(=O)NC(C)C(O)C(C)C(=O)NC(C(=O)NCCc1nc(-c2nc(C(=O)NCCCCN=C(N)N)cs2)cs1)C(C)O)C(OC1OC(CO)C(O)C(O)C1OC1OC(CO)C(O)C(OC(N)=O)C1O)c1cnc[nH]1 (configuration not stated), the T/C (endpoint: median survival time, dose: 3.9 mg/kg/injection, schedule: Q01DX011 (ip), vehicle: saline, higher = longer survival) was 122 % of control, the T/C (endpoint: median survival time, dose: 6.5 mg/kg/injection, schedule: Q01DX011 (ip), vehicle: saline, higher = longer survival) was 112 % of control and the T/C (endpoint: median survival time, dose: 10.8 mg/kg/injection, schedule: Q01DX011 (ip), vehicle: saline, higher = longer survival) was 150 % of control. For the same compound, the T/C (endpoint: median survival time, dose: 18.0 mg/kg/injection, schedule: Q01DX011 (ip), vehicle: saline, higher = longer survival) was 170 % of control and the T/C (endpoint: median survival time, dose: 30.0 mg/kg/injection, schedule: Q01DX011 (ip), vehicle: saline, higher = longer survival) was 168 % of control.
For CCN(CC)Cc1cc(Nc2c3ccccc3nc3cc(Cl)ccc23)ccc1O, the T/C (endpoint: mean tumor weight (est.), dose: 35.0 mg/kg/injection, schedule: Q01DX011 (ip), vehicle: saline, higher = larger tumour) was 79 % of control.
